Reference: patent publication US8394952B2 (Vertex Pharmaceuticals Incorporated, priority 2006, dated 2013)

Molecular target: Plk1 (Homo sapiens, UniProt P53350)
Assay: biochemical

Plk1, sequence (P53350 20-338): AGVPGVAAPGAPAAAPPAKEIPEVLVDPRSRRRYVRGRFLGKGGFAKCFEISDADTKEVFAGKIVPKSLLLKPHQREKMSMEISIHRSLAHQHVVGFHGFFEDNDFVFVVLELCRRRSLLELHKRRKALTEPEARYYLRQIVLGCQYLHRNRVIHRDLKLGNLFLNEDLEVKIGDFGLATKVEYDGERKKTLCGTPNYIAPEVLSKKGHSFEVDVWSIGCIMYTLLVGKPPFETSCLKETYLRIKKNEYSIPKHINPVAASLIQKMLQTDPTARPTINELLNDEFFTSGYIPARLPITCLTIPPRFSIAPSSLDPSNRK

COc1cc(C(=O)NC2CCN(CCF)CC2)ccc1Nc1ncc2c(n1)N(C1CCCC1)CC(C)(C)C(=O)N2C [Compound I-77, 4-(-9-cyclopentyl-6,7,8,9-tetrahydro-5,7,7-trimethyl-6-oxo-5H-pyrimido[4,5-b][1,4]diazepin-2-ylamino)-N-(1-(2-fluoroethyl)piperidin-4-yl)-3-methoxybenzamide]
Ki: < 10 nM

COc1cc(C(=O)NC2CN(CC3CC3)C2)ccc1Nc1ncc2c(n1)N(C1CCCC1)CC(C)(C)C(=O)N2C [Compound I-53, 4-(9-cyclopentyl-6,7,8,9-tetrahydro-5,7,7-trimethyl-6-oxo-5H-pyrimido[4,5-b][1,4]diazepin-2-ylamino)-N-(1-(cyclopropylmethyl)azetidin-3-yl)-3-methoxybenzamide]
Ki: < 10 nM

CCOc1cc(C(=O)NC2CCN(C)CC2)ccc1Nc1ncc2c(n1)N(C1CCCC1)CC(C)(C)C(=O)N2C [Compound I-74, 4-(9-cyclopentyl-6,7,8,9-tetrahydro-5,7,7-trimethyl-6-oxo-5H-pyrimido[4,5-b][1,4]diazepin-2-ylamino)-3-ethoxy-N-(1-methylpiperidin-4-yl)benzamide]
Ki: < 10 nM

CN1C(=O)C(C)(C)CN(C2CCCC2)c2nc(Nc3ccc4[nH][nH]c(=O)c4c3)ncc21 [Compound I-109, 2-(2,3-dihydro-3-oxo-1H-indazol-5-ylamino)-9-cyclopentyl-8,9-dihydro-5,7,7-trimethyl-5H-pyrimido[4,5-b][1,4]diazepin-6(7H)-one]
Ki: 10 to 100 nM

COc1ccc(CNC(=O)c2ccc(Nc3ncc4c(n3)N(C3CCCC3)CC(C)(C)C(=O)N4C)c(OC)c2)cc1 [Compound I-213, 4-(9-cyclopentyl-5,7,7-trimethyl-6-oxo-6,7,8,9-tetrahydro-5H-pyrimido[4,5-b][1,4]diazepin-2-ylamino)-3-methoxy-N-(4-methoxybenzyl)benzamide]
Ki: < 10 nM

COc1cc(C(=O)N2CC[C@H](F)C2)ccc1Nc1ncc2c(n1)N(C1CCCC1)CC(C)(C)C(=O)N2C [Compound I-32, 9-Cyclopentyl-2-[4-((S)-3-fluoro-pyrrolidine-1-carbonyl)-2-methoxyphenylamino]-5,7,7-trimethyl-5,7,8,9-tetrahydropyrimido[4,5-b][1,4]diazepin-6-one]
Ki: < 10 nM

COc1cc(C(=O)Nc2ccncc2)ccc1Nc1ncc2c(n1)N(C1CCCC1)CC(C)(C)C(=O)N2C [Compound I-24, 4-(9-cyclopentyl-6,7,8,9-tetrahydro-5,7,7-trimethyl-6-oxo-5H-pyrimido[4,5-b][1,4]diazepin-2-ylamino)-3-methoxy-N-(pyridin-4-yl)benzamide]
Ki: < 10 nM

COc1cc(C(=O)NC2CCOCC2)ccc1Nc1ncc2c(n1)N(C1CCCC1)C[C@H](C)C(=O)N2C [Compound I-174, 4-((S)-9-cyclopentyl-6,7,8,9-tetrahydro-5,7-dimethyl-6-oxo-5H-pyrimido[4,5-b][1,4]diazepin-2-ylamino)-N-(tetrahydro-2H-pyran-4-yl)-3-methoxybenzamide]
Ki: < 10 nM

COc1cc(C(=O)NC[C@@H]2CCCC[C@H]2O)ccc1Nc1ncc2c(n1)N(C1CCCC1)CC(C)(C)C(=O)N2C [Compound I-229, 4-(9-cyclopentyl-5,7,7-trimethyl-6-oxo-6,7,8,9-tetrahydro-5H-pyrimido[4,5-b][1,4]diazepin-2-ylamino)-N-(((1S,2R)-2-hydroxycyclohexyl)methyl)-3-methoxybenzamide]
Ki: < 10 nM

CN1C(=O)C(C)(C)CN(C2CCCC2)c2nc(Nc3ccc4c(c3)CC(=O)N4)ncc21 [Compound I-45, 2-(2-oxoindolin-5-ylamino)-9-cyclopentyl-8,9-dihydro-5,7,7-trimethyl-5H-pyrimido[4,5-b][1,4]diazepin-6(7H)-one]
Ki: 10 to 100 nM

COc1cc(C(=O)NC2CC3CCC2C3)ccc1Nc1ncc2c(n1)N(C1CCCC1)CC(C)(C)C(=O)N2C (centres unmarked) [Compound I-210, N-(bicyclo[2.2.1]heptan-2-yl)-4-(9-cyclopentyl-5,7,7-trimethyl-6-oxo-6,7,8,9-tetrahydro-5H-pyrimido[4,5-b][1,4]diazepin-2-ylamino)-3-methoxybenzamide]
Ki: < 10 nM

COc1cc(C(=O)NC2CCOCC2)ccc1Nc1ncc2c(n1)N(C1CC(F)(F)C1)CC(C)(C)C(=O)N2C [Compound I-171, 4-(9-(3,3-difluorocyclobutyl)-6,7,8,9-tetrahydro-5,7,7-trimethyl-6-oxo-5H-pyrimido[4,5-b][1,4]diazepin-2-ylamino)-N-(tetrahydro-2H-pyran-4-yl)-3-methoxybenzamide]
Ki: < 10 nM

COc1cc(C(=O)N2CCOCC2)ccc1Nc1ncc2c(n1)N(C1CCCC1)CC(C)(C)C(=O)N2C [Compound I-199, 9-cyclopentyl-2-(2-methoxy-4-(morpholine-4-carbonyl)phenylamino)-5,7,7-trimethyl-8,9-dihydro-5H-pyrimido[4,5-b][1,4]diazepin-6(7H)-one]
Ki: < 10 nM

COc1cc(C(=O)NC2CCOCC2)ccc1Nc1ncc2c(n1)N(C1CCCC1)CC(C)(C)C(=O)N2C [Compound I-134, 4-(9-cyclopentyl-6,7,8,9-tetrahydro-5,7,7-trimethyl-6-oxo-5H-pyrimido[4,5-b][1,4]diazepin-2-ylamino)-N-(tetrahydro-2H-pyran-4-yl)-3-methoxybenzamide]
Ki: < 10 nM

COc1cc(C(=O)NC2CCN(C)CC2)ccc1Nc1ncc2c(n1)N(C1CCCC1)CC(C)(C)C(=O)N2C [Compound I-23, 4-(9-cyclopentyl-6,7,8,9-tetrahydro-5,7,7-trimethyl-6-oxo-5H-pyrimido[4,5-b][1,4]diazepin-2-ylamino)-3-methoxy-N-(1-methylpiperidin-4-yl)benzamide]
Ki: < 10 nM

COc1cc(C(=O)Nc2ccnc(Cl)c2)ccc1Nc1ncc2c(n1)N(C1CCCC1)CC(C)(C)C(=O)N2C [Compound I-227, N-(2-chloropyridin-4-yl)4-(9-cyclopentyl-5,7,7-trimethyl-6-oxo-6,7,8,9-tetrahydro-5H-pyrimido[4,5-b][1,4]diazepin-2-ylamino)-3-methoxybenzamide]
Ki: < 10 nM

CNC(=O)c1ccc(Nc2ncc3c(n2)N(C2CCCC2)CC2(CC2)C(=O)N3C)c(OC)c1 [Compound I-62, 4-(9′-cyclopentyl-5′-methyl-6′-oxo-5′,6′,8′,9′-tetrahydrospiro[cyclopropane-1,7′-pyrimido[4,5-b][1,4]diazepine]-2′-ylamino)-3-methoxy-N-methylbenzamide]
Ki: < 10 nM

COc1cc(C(=O)NC2CCOCC2)ccc1Nc1ncc2c(n1)N(C1CCCC1)C[C@@H](C)C(=O)N2C [Compound I-182, (R)-4-(9-cyclopentyl-5,7-dimethyl-6-oxo-6,7,8,9-tetrahydro-5H-pyrimido[4,5-b][1,4]diazepin-2-ylamino)-3-methoxy-N-(tetrahydro-2H-pyran-4-yl)benzamide]
Ki: < 10 nM

COc1cc(C(=O)NCC2CC2)ccc1Nc1ncc2c(n1)N(C1CCCC1)CC(C)(C)C(=O)N2C [Compound I-131, 4-(9-cyclopentyl-6,7,8,9-tetrahydro-5,7,7-trimethyl-6-oxo-5H-pyrimido[4,5-b][1,4]diazepin-2-ylamino)-N-(cyclopropylmethyl)-3-methoxybenzamide]
Ki: < 10 nM

CC(=O)Nc1cc(Nc2ncc3c(n2)N(C2CCCC2)CC(C)(C)C(=O)N3C)ccc1C [Compound I-162, N-(5-(9-cyclopentyl-6,7,8,9-tetrahydro-5,7,7-trimethyl-6-oxo-5H-pyrimido[4,5-b][1,4]diazepin-2-ylamino)-2-methylphenyl)acetamide]
Ki: 10 to 100 nM

CC(=O)Nc1ccc(Nc2ncc3c(n2)N(C2CCCC2)CC(C)(C)C(=O)N3C)cc1 [Compound I-112, N-(4-(9-cyclopentyl-6,7,8,9-tetrahydro-5,7,7-trimethyl-6-oxo-5H-pyrimido[4,5-b][1,4]diazepin-2-ylamino)phenyl)acetamide]
Ki: 10 to 100 nM

COc1cc(C(=O)NC2CCC2)ccc1Nc1ncc2c(n1)N(C1CCCC1)C[C@@H](C)C(=O)N2C [Compound I-186, (R)—N-cyclobutyl-4-(9-cyclopentyl-5,7-dimethyl-6-oxo-6,7,8,9-tetrahydro-5H-pyrimido[4,5-b][1,4]diazepin-2-ylamino)-3-methoxybenzamide]
Ki: < 10 nM

CCN1CCC(NC(=O)c2ccc(Nc3ncc4c(n3)N(C3CCCC3)CC(C)(C)C(=O)N4C)c(OC)c2)CC1 [Compound I-72]
Ki: < 10 nM

COCC(=O)Nc1ccc(Nc2ncc3c(n2)N(C2CCCC2)CC(C)(C)C(=O)N3C)c(OC)c1 [Compound I-104, N-(4-(9-cyclopentyl-5,7,7-trimethyl-6-oxo-6,7,8,9-tetrahydro-5H-pyrimido[4,5-b][1,4]diazepin-2-ylamino)-3-methoxyphenyl)-2-methoxyacetamide]
Ki: < 10 nM

COc1cc(C(=O)Nc2cc(C)ns2)ccc1Nc1ncc2c(n1)N(C1CCCC1)CC(C)(C)C(=O)N2C [Compound I-232, 4-(9-cyclopentyl-5,7,7-trimethyl-6-oxo-6,7,8,9-tetrahydro-5H-pyrimido[4,5-b][1,4]diazepin-2-ylamino)-3-methoxy-N-(3-methylisothiazol-5-yl)benzamide]
Ki: < 10 nM

COc1cc(C(=O)NC2CCN(CC3CC3)CC2)ccc1Nc1ncc2c(n1)N(C1CCCC1)CC(C)(C)C(=O)N2C [Compound I-59, 4-(9-cyclopentyl-6,7,8,9-tetrahydro-5,7,7-trimethyl-6-oxo-5H-pyrimido[4,5-b][1,4]diazepin-2-ylamino)-N-(1-(cyclopropylmethyl)piperidin-4-yl)-3-methoxybenzamide]
Ki: < 10 nM

CNC(=O)c1ccc(Nc2ncc3c(n2)N(C2CCCC2)CCC(=O)N3C)c(OC)c1 [Compound I-9, 4-(9-cyclopentyl-6,7,8,9-tetrahydro-5-methyl-6-oxo-5H-pyrimido[4,5-b][1,4]diazepin-2-ylamino)-3-methoxy-N-methylbenzamide]
Ki: < 10 nM

CNC(=O)c1ccc(Nc2ncc3c(n2)N(C2CCCC2)C[C@@H](C)C(=O)N3C)c(OC)c1 [Compound I-18, 4-((R)-9-cyclopentyl-6,7,8,9-tetrahydro-5,7-dimethyl-6-oxo-5H-pyrimido[4,5-b][1,4]diazepin-2-ylamino)-3-methoxy-N-methylbenzamide]
Ki: < 10 nM

CN1C(=O)C(C)(C)CN(C2CCCC2)c2nc(Nc3ccc(C(=O)NCCO)cc3)ncc21 [Compound I-87, 4-(9-cyclopentyl-6,7,8,9-tetrahydro-5,7,7-trimethyl-6-oxo-5H-pyrimido[4,5-b][1,4]diazepin-2-ylamino)-N-(2-hydroxyethyl)benzamide]
Ki: < 10 nM
